Values quoted from earlier work as cited in US20060280691A1 (University of Alberta, priority 2005, published 2006).
Converted amounts (≈) assume the structure as drawn.

O=C(O)c1cn(C2CC2)c2cc(N3CCNCC3)c(F)cc2c1=O [Ciprofloxacin, ciprofloxacin]
MIC90 (Pseudomonas aeruginosa): 4 µg/mL (≈ 12.1 µM) | MIC (Bacillus anthracis): 1.6 µg/mL (≈ 4.83 µM) | MIC90 (Streptococcus pyogenes): 1 µg/mL (≈ 3.02 µM) | MIC90 (Neisseria gonorrhoeae): 0.004 µg/mL (≈ 0.0121 µM)
